Measured values reported in paper PMC4230938, “A High-Yield Co-Expression System for the Purification of an Intact Drs2p-Cdc50p Lipid Flippase Complex, Critically Dependent on and Stabilized by Phosphatidylinositol-4-Phosphate” (PLoS ONE, 2014).

Legend:
Drs2p-Cdc50p complex [1] = biological target: T1, Drs2p-Cdc50p complex (Saccharomyces cerevisiae, UniProt P39524); experiment: ATPase activity of complex purified without PS; format: biochemical; conditions: lipid stimulation at 0.05 mg/mL; 0.025 mg/mL PI4P, 1 mM Mg-ATP, 1 mg/mL DDM, pH 7, 30 °C
T1 construct: gene DRS2; full-length, co-expressed in yeast W303.1b/GAL4; N-terminal Bad tag (Drs2p) and His10 tag (Cdc50p) cut by TEV, Gly plus four-Gly linker left; 154,050 Da Drs2p, 45,136 Da unglycosylated Cdc50p; glycosylated; 1:1 complex in DDM; with Cell division control protein 50
T1 sequence (P39524 1-1355): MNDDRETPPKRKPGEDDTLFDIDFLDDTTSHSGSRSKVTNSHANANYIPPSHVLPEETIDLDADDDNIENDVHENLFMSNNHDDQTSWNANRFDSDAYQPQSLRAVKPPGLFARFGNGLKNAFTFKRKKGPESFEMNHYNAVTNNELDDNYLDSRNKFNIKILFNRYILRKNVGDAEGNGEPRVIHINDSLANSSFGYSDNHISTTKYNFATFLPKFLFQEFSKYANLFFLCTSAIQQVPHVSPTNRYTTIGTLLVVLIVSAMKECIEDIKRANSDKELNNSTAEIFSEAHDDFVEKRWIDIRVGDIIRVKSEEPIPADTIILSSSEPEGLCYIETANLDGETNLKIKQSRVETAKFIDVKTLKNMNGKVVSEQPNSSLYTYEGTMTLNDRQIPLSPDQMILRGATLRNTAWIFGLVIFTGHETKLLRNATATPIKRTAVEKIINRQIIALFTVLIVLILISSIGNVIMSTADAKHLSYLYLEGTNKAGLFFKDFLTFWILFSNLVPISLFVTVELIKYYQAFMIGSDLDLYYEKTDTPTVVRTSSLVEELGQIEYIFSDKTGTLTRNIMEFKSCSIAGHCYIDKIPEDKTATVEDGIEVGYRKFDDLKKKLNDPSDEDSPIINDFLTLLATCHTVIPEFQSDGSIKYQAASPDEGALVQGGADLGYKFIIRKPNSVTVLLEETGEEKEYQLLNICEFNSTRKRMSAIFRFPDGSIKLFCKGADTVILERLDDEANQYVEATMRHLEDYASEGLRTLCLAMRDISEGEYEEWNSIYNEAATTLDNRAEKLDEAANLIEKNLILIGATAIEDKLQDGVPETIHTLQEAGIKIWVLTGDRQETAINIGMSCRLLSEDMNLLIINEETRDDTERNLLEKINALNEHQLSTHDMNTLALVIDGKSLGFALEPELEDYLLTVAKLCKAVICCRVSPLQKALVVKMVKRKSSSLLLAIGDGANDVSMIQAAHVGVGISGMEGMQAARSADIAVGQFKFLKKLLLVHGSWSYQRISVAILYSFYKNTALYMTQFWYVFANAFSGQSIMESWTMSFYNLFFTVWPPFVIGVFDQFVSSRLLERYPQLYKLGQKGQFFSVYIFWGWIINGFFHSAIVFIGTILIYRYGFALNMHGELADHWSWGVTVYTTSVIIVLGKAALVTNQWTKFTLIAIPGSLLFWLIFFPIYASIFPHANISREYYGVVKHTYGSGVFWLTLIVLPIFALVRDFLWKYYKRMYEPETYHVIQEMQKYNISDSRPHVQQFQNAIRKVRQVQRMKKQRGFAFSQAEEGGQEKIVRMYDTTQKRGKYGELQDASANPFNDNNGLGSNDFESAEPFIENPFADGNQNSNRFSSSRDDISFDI
T1 sequence (P25656 1-391 partner): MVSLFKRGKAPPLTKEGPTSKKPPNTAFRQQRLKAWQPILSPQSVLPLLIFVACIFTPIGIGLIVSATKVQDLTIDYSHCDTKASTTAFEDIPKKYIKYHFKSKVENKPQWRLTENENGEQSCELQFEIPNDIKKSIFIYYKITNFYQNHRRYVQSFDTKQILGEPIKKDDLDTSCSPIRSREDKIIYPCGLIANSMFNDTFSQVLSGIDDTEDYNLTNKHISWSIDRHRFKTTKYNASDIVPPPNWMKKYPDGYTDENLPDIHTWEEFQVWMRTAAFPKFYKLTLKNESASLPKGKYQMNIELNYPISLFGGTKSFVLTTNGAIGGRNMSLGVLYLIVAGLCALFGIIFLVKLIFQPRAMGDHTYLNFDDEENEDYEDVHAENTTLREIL

Drs2p-Cdc50p complex [2] = biological target: T1, Drs2p-Cdc50p complex; experiment: ATPase activity, colorimetric Pi release; format: biochemical; conditions: transported lipid stimulating ATPase; 0.025 mg/mL PI4P, 1 mM Mg-ATP, 1 mg/mL DDM, pH 7, 30 °C; residual PS from purification present; read-out: [PS]1/2
Drs2p-Cdc50p complex [3] = biological target: T1, Drs2p-Cdc50p complex; experiment: ATPase activity, colorimetric Pi release; format: biochemical; conditions: inhibitor; 1 h pre-incubation on ice; 1 mM ATP, 0.025 mg/mL PI4P, 0.05 mg/mL POPS, 1 mg/mL DDM, pH 7, 30 °C; printed only as a range
[4] = substrate: Nc1ncnc2c1ncn2[C@@H]1O[C@H](COP(=O)(O)OP(=O)(O)OP(=O)(O)O)[C@@H](O)[C@H]1O; experiment: ATPase activity, colorimetric Pi release; format: biochemical, Saccharomyces cerevisiae; conditions: 0.025 mg/mL PI4P, 0.05 mg/mL POPS, 1 mg/mL DDM, ATP-regenerating system, pH 7, 30 °C
[5] = biological target: T2, Drs2p, tag-free after TEV cleavage (S. cerevisiae, UniProt P39524 1-1355); experiment: in-gel fluorescence of haloalkane-modified Trp residues after SDS-PAGE; band intensities of Drs2p and Cdc50p in the streptavidin-purified complex, 4-20% gradient gel; conditions: both partners purified
T2 construct: Drs2p, yeast P4-ATPase; theoretical mass of the recombinant protein 154,050 Da; also called purified Drs2p; source: S. cerevisiae W303.1b/GAL4, co-expressed with Cdc50p, purified (streptavidin-Sepharose, TEV elution, Ni2+-TED; SEC); not shown: Bad (Biotin Acceptor Domain), N-terminal, cleaved
T2 sequence (looked up): T1 sequence (P39524 1-1355)

`CCCCCCCCCCCCCC(=O)OC[C@H](COP(=O)(O)OC[C@H](N)C(=O)O)OC(=O)CCCCCCCCCCCCC` [DMPS, 1,2-dimyristoyl-sn-glycero-3-phospho-L-serine] was tested, and the “ATPase activity of complex purified without PS” value (Drs2p-Cdc50p complex [1]) was “PS had the largest stimulating effect, irrespective of its fatty acyl chain (POPS or DMPS)”.

For `CCCCCCCC/C=C\CCCCCCCC(=O)O[C@H](COC(=O)CCCCCCCCCCCCCCC)COP(=O)(O)OC[C@H](N)C(=O)O` [POPS, 1-palmitoyl-2-oleoyl-sn-glycero-3-phospho-L-serine], the Km (Drs2p-Cdc50p complex [2]) was > 26.2 µM.

With `[O]=[V]([OH])([OH])[OH]` [orthovanadate] the KI (Drs2p-Cdc50p complex [3]) was “vanadate had a rather poor KI, in the millimolar range (Figure 7E)”.

In the case of `CCCCCCCC/C=C\CCCCCCCC(=O)O[C@H](COC(=O)CCCCCCCCCCCCCCC)COP(=O)(O)OCCN` [POPE, 1-palmitoyl-2-oleoyl-sn-glycero-3-phosphoethanolamine], the “ATPase activity of complex purified without PS” value (Drs2p-Cdc50p complex [1]) is reported as “POPC only had a slightly stimulating effect, POPE had a larger one”.

B1: Drs2p-Cdc50p complex (Saccharomyces cerevisiae S288C) (protein)
chain: T1 sequence (P39524 1-1355)
notes: full-length, co-expressed in yeast W303.1b/GAL4; N-terminal Bad tag (Drs2p) and His10 tag (Cdc50p) cut by TEV, Gly plus four-Gly linker left; 154,050 Da Drs2p, 45,136 Da unglycosylated Cdc50p; glycosylated; 1:1 complex in DDM; with Cell division control protein 50
With B1 the K0.5 [4] was 10 µM.

B2: Cdc50p, tag-free after TEV cleavage (natural protein, S. cerevisiae, UniProt P25656 1-391, looked up)
chain: T1 sequence (P25656 1-391 partner)
modifications: glycosylated
notes: Cdc50p, accessory subunit of Drs2p; recombinant non-glycosylated mass 45,136 Da including the linker glycines; also called glycosylated Cdc50p; source: S. cerevisiae W303.1b/GAL4, co-expressed with Drs2p, purified with it (streptavidin-Sepharose, TEV elution, Ni2+-TED; SEC); not shown: His10, N-terminal, cleaved
B2 was tested, and the “stoichiometry N” value [5] was 1 Drs2p:Cdc50p (mol:mol).
